These results are taken from US4980474A, “Apovincaminic acid derivatives” (Taisho Pharmaceutical Co., Ltd., priority 1988, dated 1990).

The subject of assay [1] is spontaneous spindle bursts (abnormal EEG pattern in aged rats). The assay can be described thus: Improvement of abnormalities of electroencephalogram (EEG) in aged rats. The note with it: 10 mg/kg intraperitoneally; for Time up to which the spontaneous spindle burst reappeared: aged rats 23-24 months; for increment of the time up to which the spontaneous spindle wave reappeared versus group treated with vitamin C only: number in parentheses. The format is in vivo, male Wistar rats. How it is done: Six male Wistar rats (23-24 months old) were used for each group. The electrodes were implanted on the frontal and occipital cortexes and hippocamus, and the rats were housed for 14 days for applying to the test. The rats operated were each put into an acoustically shielded box with the minimum light amount and tamed for 60 minutes while keeping the behavior free, and then the recording of EEG was started. Thirty minutes after the starting the recording of EEG, the drug (used the same as those in Experiment 2) dissolved in 1 ml of an aqueous vitamin C solution was intraperitoneally administered in the amount of 10 mg per 1 kg of the body weight of the rat. The spontaneous spindle bursts (abnormal EEG pattern in aged rats) were disappeared after the intraperitoneal administration and reappeared after a certain time. [Neurobiology of Aging, vol. 7, page 115 (1986)]. The time up to which the spontaneous spindle burst reappeared was measured. Group which received 10% aqueous vitamin C solution only was tested for comparison. Number in parentheses means the increment of the time (minutes) up to which the spontaneous spindle wave reappeared after the drug administration when compared with that of the group treated with vitamin C only.

Assay [2] relates to basilar and femoral artery rings, 5HT contraction. The assay can be described thus: Inhibition of basilar and femoral artery contraction induced by serotonin (5HT). The note with it: Canis lupus familiaris; 10^-6 M serotonin; Krebs-Ringer, isolated dog artery rings. Also noted: species or system Mongrel dogs. The method, then: (§1) The test was carried out according to the method of Sonia Jancar et al described in European Journal of Pharmacology, vol. 136, page 345 (1987). Mongrel dogs were killed by anesthetization with pentbarvital (60 mg/kg), the brain was rapidly removed, and the basilar artery was dissected. The femoral artery was picked up at the same time. The isolated blood vessel was cut into rings 5 mm wide, which were soaked in 5 ml of a Krebs-Ringer solution under a resting tension of 1 g. The solution was kept with 95% oxygen and 5% carbon dioxide. To each of the solution in which the blood vessel rings were soaked were added 64 mM of potassium ion (K^+), 10^-5 M of norepinefurin (NE) and 10^-6 M of serotonine (5HT), respectively, and the resulting blood contractions were measured by FD pick up. To the blood vessel rings each was administered the drug [2-nitroxyethyl (+)-apovincaminate of the present invention and ethyl (+)-apovincaminate as control], and the concentrations (IC50) required to produce 50% inhibitions of the contractions by the administration of K^+, NE and 5TH, respectively, were measured.

Assay [3] relates to femoral artery. Description: Effect on increase of blood flow, femoral artery (anesthetized dogs). In kind it is in vivo. The note with it: 50 μg/kg intraarterially. The method, then: (§2) Effect on increase of blood flow was examined using dogs anesthetized with 5% pentbarbital sodium (30 mg/kg). The drugs [2-nitroxyethyl (+)-apovincaminate and 3-nitroxyl-n-propyl apovincaminate of the present invention and ethyl (+)-apovincaminate as control] were administered intraarterially in an amount of each 50 μg/kg, comparisons were made of the blood flows in the femoral artery, vertebral artery and common coronary artery before and after administration of the drugs, and the increase ratios of the blood flows were expressed by percent in Table 1.

Assay [4] has as its system basilar and femoral artery rings, NE contraction. Description: Inhibition of basilar and femoral artery contraction induced by norepinephrine (NE). The note with it: Canis lupus familiaris; 10^-5 M norepinephrine; Krebs-Ringer, isolated dog artery rings. Set-up: species or system Mongrel dogs. How it is done: as §1
Assay [5] has as its system vertebral artery. Description: Effect on increase of blood flow, vertebral artery (anesthetized dogs). The format is in vivo. The note with it: 50 μg/kg intraarterially. How it is done: as §2
Assay [6] has as its system common coronary artery. The assay can be described thus: Effect on increase of blood flow, common coronary artery (anesthetized dogs). In kind it is in vivo. The note with it: 50 μg/kg intraarterially. The method, then:
as §2

Assay [7] concerns basilar and femoral artery rings, K^+ contraction. The assay can be described thus: Inhibition of basilar and femoral artery contraction induced by K^+. Also noted: species or system Mongrel dogs. The note with it: Canis lupus familiaris; 64 mM K^+; Krebs-Ringer, isolated dog artery rings. The method, then: as §1

As to `CCOC(=O)C1=C[C@]2(CC)CCCN3CCc4c(n1c1ccccc41)[C@@H]32` [Drug B, Ethyl (+)-apovincaminate, reference compound], the “Time up to which the spontaneous spindle burst reappeared” value in assay [1] was determined as 21 min. In addition, the “increment of the time up to which the spontaneous spindle wave reappeared versus group treated with vitamin C only” value in assay [1] (aged rats) worked out at 11 min. Also, the IC50 – broadly, the midpoint of a concentration-inhibition curve – in assay [2] was found to be 100 µM; in assay [4], 63.1 µM; in assay [7], 2.5 µM. In addition, in assay [3], the “Increase of blood flow, Femoral artery” value was found to be 14.8%. The “Increase of blood flow, Bertebral artery” value in assay [5] worked out at 21.8%. In assay [6], the “Increase of blood flow, Common coronary artery” value was 15.5%.

As to `CC[C@@]12C=C(C(=O)OCCO[N+](=O)[O-])n3c4c(c5ccccc53)CCN(CCC1)[C@H]42` [Drug A, 2-nitroxyethyl (+)-apovincaminate], the “activity relative to drug B (control) in terms of the increment of the time up to which the spontaneous spindle burst reappeared” value in assay [1] (aged rats) is reported as “about 3 times”. Moreover, the “Time up to which the spontaneous spindle burst reappeared” value in assay [1] came out at 41 min. Further, in assay [1] (aged rats), the “increment of the time up to which the spontaneous spindle wave reappeared versus group treated with vitamin C only” value was found to be 31 min. Also, the half-maximal inhibitory concentration (IC50) in assay [2] came to 6.02 µM; in assay [4], 22.3 µM; in assay [7] it was 1.17 µM. The “Increase of blood flow, Femoral artery” value in assay [3] was 86.8%. Also, the “Increase of blood flow, Bertebral artery” value in assay [5] was found to be 72.3%. Moreover, the “Increase of blood flow, Common coronary artery” value in assay [6] turned out to be 71.1%.

`CC[C@@]12C=C(C(=O)OCCCO[N+](=O)[O-])n3c4c(c5ccccc53)CCN(CCC1)[C@H]42` [3-Nitroxy-n-propyl (+)-apovincaminate]: in assay [3], the “Increase of blood flow, Femoral artery” value was determined as 28.2%. The “Increase of blood flow, Bertebral artery” value in assay [5] was 45.7%. In addition, the “Increase of blood flow, Common coronary artery” value in assay [6] amounted to 44.3%.
